Experimental data published in PMC9693918, “May Sulfonamide Inhibitors of Carbonic Anhydrases from Mammaliicoccus sciuri Prevent Antimicrobial Resistance Due to Gene Transfer to Other Harmful Staphylococci?” (International Journal of Molecular Sciences, 2022).
Like-named read-outs stand apart in the source and are kept apart here.

Biological target: T1, MscCAγ (M. sciuri γ-CA) (Mammaliicoccus sciuri, UniProt A0AB37HNM1)
T1 construct: gene OWO77_11715
T1 sequence (A0AB37HNM1 1-169): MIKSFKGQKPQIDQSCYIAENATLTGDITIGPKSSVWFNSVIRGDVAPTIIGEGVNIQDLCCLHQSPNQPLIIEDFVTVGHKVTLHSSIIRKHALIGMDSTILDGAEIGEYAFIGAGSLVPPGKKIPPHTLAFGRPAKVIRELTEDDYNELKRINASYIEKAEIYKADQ
Assay: stopped-flow CO2 hydration assay, phenol red
Type: biochemical
Excerpt: stopped-flow CO2 hydration assay, phenol red on MscCAγ (M. sciuri γ-CA)

## CCN[C@H]1CN(CCCOC)S(=O)(=O)c2sc(S(N)(=O)=O)cc21 [BRZ]
read-out: KI (nM) ^a / MscCAγ
  Ki: 100 nM

## NS(=O)(=O)c1nnc(NS(=O)(=O)c2ccccc2)s1 [BZA]
read-out: KI (nM) ^a / MscCAγ
  Ki: 444 nM

## Cc1ccc(-c2cc(C(F)(F)F)nn2-c2ccc(S(N)(=O)=O)cc2)cc1 [CLX]
read-out: KI (nM) ^a / MscCAγ
  Ki: 3020 nM

## NS(=O)(=O)c1cc(Cl)c(Cl)c(S(N)(=O)=O)c1 [DCP]
read-out: KI (nM) ^a / MscCAγ
  Ki: 8580 nM

## NS(=O)(=O)c1cc2c(cc1Cl)NCNS2(=O)=O [HCT]
read-out: KI (nM) ^a / MscCAγ
  Ki: 18300 nM

## NS(=O)(=O)c1ccc(S(=O)(=O)Nc2cccc3c(Cl)c[nH]c23)cc1 [IND]
read-out: KI (nM) ^a / MscCAγ
  Ki: 369 nM

## CC(=O)N=c1sc(S(N)(=O)=O)nn1C [MZA]
read-out: KI (nM) ^a / MscCAγ
  Ki: 94.5 nM

## O=C1NS(=O)(=O)c2ccccc21 [SAC]
read-out: KI (nM) ^a / MscCAγ
  Ki: 29700 nM

## CCN1CCCC1CNC(=O)c1cc(S(N)(=O)=O)ccc1OC (stereo not shown) [SLP]
read-out: KI (nM) ^a / MscCAγ
  Ki: 2200 nM

## NS(=O)(=O)c1ccc(N2CCCCS2(=O)=O)cc1 [SLT]
read-out: KI (nM) ^a / MscCAγ
  Ki: 405 nM

## CC1(C)O[C@@H]2[C@@H](CO[C@@]3(COS(N)(=O)=O)OC(C)(C)O[C@@H]23)O1 [TPM]
read-out: KI (nM) ^a / MscCAγ
  Ki: 578 nM

## Cc1onc(-c2ccccc2)c1-c1ccc(S(N)(=O)=O)cc1 [VLX]
read-out: KI (nM) ^a / MscCAγ
  Ki: 1540 nM

## NS(=O)(=O)Cc1noc2ccccc12 [ZNS]
read-out: KI (nM) ^a / MscCAγ
  Ki: 923 nM

## NCCc1ccc(S(N)(=O)=O)cc1 [compound 6, 6]
  Ki: 176 nM

## NS(=O)(=O)c1ccc(CCNS(=O)(=O)c2ccc([N+](=O)[O-])cc2CO)cc1 [compound 21, 21]
read-out: KI (nM) ^a / MscCAγ
  Ki: 83.4 nM

## Nc1ccc(S(=O)(=O)Nc2ccc(S(N)(=O)=O)cc2)cc1 [compound 22, 22]
read-out: KI (nM) ^a / MscCAγ
  Ki: 72.5 nM
